We go through 5 compounds from ChEMBL document CHEMBL1201862, “PubChem BioAssay data set” (2004).

Active and inactive are the calls of the source.

In one assay the test system is HeLa. Description: toxicity to human HeLa cells – cell-based, 48 h, plate reader, cherry-picks, cytotoxicity control, dose response (AID 504942). It is filed as functional.
For assay [1], the target named is T1, Acyl-homoserine lactone acylase PvdQ (Pseudomonas aeruginosa (strain LESB58), UniProt Q9I194).
T1 sequence (Q9I194 whole entry): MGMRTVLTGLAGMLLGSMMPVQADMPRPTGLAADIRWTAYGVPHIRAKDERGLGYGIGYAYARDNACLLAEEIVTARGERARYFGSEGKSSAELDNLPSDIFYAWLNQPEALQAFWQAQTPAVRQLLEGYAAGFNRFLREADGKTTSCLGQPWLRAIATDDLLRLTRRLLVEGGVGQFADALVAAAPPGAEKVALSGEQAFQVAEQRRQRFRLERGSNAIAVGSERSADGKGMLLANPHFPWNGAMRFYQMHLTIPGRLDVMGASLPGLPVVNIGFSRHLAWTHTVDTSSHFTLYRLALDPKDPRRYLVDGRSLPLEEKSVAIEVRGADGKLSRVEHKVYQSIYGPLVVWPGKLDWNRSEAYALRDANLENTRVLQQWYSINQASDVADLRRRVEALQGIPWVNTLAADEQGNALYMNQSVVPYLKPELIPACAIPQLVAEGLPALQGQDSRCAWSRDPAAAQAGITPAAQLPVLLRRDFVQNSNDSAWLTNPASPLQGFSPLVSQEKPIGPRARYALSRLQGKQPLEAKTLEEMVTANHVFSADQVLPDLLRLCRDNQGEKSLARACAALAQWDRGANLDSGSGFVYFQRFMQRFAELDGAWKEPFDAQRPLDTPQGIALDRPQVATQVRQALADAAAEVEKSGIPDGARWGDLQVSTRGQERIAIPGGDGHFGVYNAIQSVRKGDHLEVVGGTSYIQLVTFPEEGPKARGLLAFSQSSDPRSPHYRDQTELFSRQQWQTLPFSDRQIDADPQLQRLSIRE
Description: PvdQ acylase enzyme activity blockers – biochemical, fluorescence, plate reader and imaging, cherry-picks, dose response (AID 493231).

In assay [2] the target is T2, Orexin/Hypocretin receptor type 1 (Homo sapiens, UniProt O43613).
T2 sequence (O43613 whole entry): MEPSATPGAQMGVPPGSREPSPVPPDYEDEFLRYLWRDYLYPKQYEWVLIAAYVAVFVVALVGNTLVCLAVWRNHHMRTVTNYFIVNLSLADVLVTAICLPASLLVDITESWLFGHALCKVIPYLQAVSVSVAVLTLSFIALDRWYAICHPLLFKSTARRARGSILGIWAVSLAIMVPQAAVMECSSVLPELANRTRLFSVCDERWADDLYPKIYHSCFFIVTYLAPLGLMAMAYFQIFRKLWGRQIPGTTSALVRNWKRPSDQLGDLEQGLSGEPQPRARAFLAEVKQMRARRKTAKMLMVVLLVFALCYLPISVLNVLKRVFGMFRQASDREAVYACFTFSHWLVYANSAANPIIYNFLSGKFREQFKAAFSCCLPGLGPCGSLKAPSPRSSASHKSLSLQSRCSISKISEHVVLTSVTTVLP
Description: Homogeneous Time Resolved Fluorescence (HTRF)-based cell-based high throughput dose response assay for antagonists of the orexin 1 receptor (OX1R; HCRTR1). [Related pubchem assays (depositor defined):AID434989, AID435008, AID463079, AID485270, AID492963, AID492964, AID492965, AID493232, AID504717, AID504718]. In kind it is functional.

A further assay deals with CHO-K1. Description: Counterscreen for antagonists of the orexin 1 receptor (OX1R; HCRTR1): Homogeneous time resolved fluorescence (HTRF)-based cell-based dose response assay to identify antagonists of the parental CHO-K1 cell line. [Related pubchem assays (depositor defined):AID434989, AID435008, AID463079, AID485270, AID492963, AID492964, AID492965, AID493232, AID504699, AID504701]. It is filed as functional. To be noted: Cricetulus griseus. In general terms: Counterscreens check selectivity or assay interference.

In assay [3] the target is T3, Orexin receptor type 2 (Homo sapiens, UniProt O43614). Description: Counterscreen assay for antagonists of the orexin 1 receptor (OX1R; HCRTR1): Homogeneous Time Resolved Fluorescence (HTRF)-based cell-based dose response assay for antagonists of the orexin 2 receptor (OX2R; HCRTR2), run by assay provider. In kind it is functional.
The target of assay [4] is T2, Orexin/Hypocretin receptor type 1. Description: Fluorescence-based cell-based high throughput dose response assay for antagonists of the orexin 1 receptor (OX1R; HCRTR1). [Related pubchem assays (depositor defined):AID434989, AID435008, AID463079, AID485270, AID492963, AID492964, AID492965, AID493232, AID504717, AID504718]. In kind it is functional.
Assay [5] in a line: Counterscreen for antagonists of the orexin 1 receptor (OX1R; HCRTR1): Fluorescence-based cell-based high throughput dose response assay to identify antagonists of the parental CHO cell line. [Related pubchem assays (depositor defined):AID434989, AID435008, AID463079, AID485270, AID492963, AID492964, AID492965, AID493232, AID504699, AID504701]. In kind it is functional.
The target of assay [6] is T3, Orexin receptor type 2. Description: Counterscreen assay for antagonists of the orexin 1 receptor (OX1R; HCRTR1): Fluorescence-based cell-based dose response assay for antagonists of the orexin 2 receptor (OX2R; HCRTR2), run by assay provider. It is filed as functional.
The subject of assay [7] is HEK293. Description: HEK293T cell viability loss, resazurin readout – resazurin fluorescence, cytotoxicity control for NF-kB activator project, SAR follow-up (AID 493251). It is filed as functional, cell-based. The conditions noted are these: Homo sapiens.
The test system of assay [8] is HEK293. Description: SAR Analysis of small molecule inhibitors of B-cell specific antigen receptor-induced NF-kB activation in a HEK-293T cell line using a luminescence assay - Set 2. [Related pubchem assays (depositor defined):AID435022, AID435025, AID489021]. It is filed as functional, cell-based. The conditions noted are these: Homo sapiens.
The test system of the next assay is Jurkat. Description: SAR Analysis of small molecule inhibitors of […] specific antigen receptor-induced NF-kB activation in a Jurkat cell line using a luminescence assay - Set 3. [Related pubchem assays (depositor defined):AID435022, AID435025, AID465]. To be noted: Homo sapiens. In kind it is functional, cell-based.
A short description of assay [9]: A Cell Based Secondary Assay to Explore Cytotoxicity in THP-1 Cells of Compounds that Modulate Mycobacterium tuberculosis in Media Containing Glycerol versus Media without Glycerol (2). In kind it is functional.
A short description of assay [10]: microbe, parasite or virus in culture. It is filed as functional. To be noted: Mycobacterium tuberculosis.
Assay [11] can be described thus: A Cell Based Secondary Assay to Explore Cytotoxicity in HepG2 Cells of Compounds that Modulate Mycobacterium tuberculosis in Media Containing Glycerol versus Media without Glycerol (2). It is filed as functional.
The nature of assay [12]: Vero E6 cell cytotoxicity, dose response, cytotoxicity control for non-replicating M. tuberculosis project, secondary assay (AID 492998). In kind it is functional, VeroE6. The conditions noted are these: Vero C1008.
The next assay in a line: cells. It is filed as functional.
Assay [13] is described as follows: non-specific 3'UTR reporter inhibition in Clone20-Shn3RL – cell-based, Renilla luciferase, cherry-picked, counter-screen for Shn3 inhibitor project, dose response (AID 624133). In kind it is functional.
The nature of assay [14]: reduction of Shn3 3'UTR-driven luciferase in osteoblasts – cell-based, Clone20 osteoblasts, firefly luciferase, cherry-picked, dose response (AID 624132).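 Note: firefly luciferase luminescence from reporter carrying the Shn3 3'UTR in osteoblasts.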 In kind it is functional.
Assay [15] in a line: THP-1 cell cytotoxicity, dose response, cytotoxicity control for non-replicating M. tuberculosis project (AID 489025). In kind it is functional.
Assay [16] in a line: Vero cell cytotoxicity, cytotoxicity control for M. tuberculosis inhibitor project, purified and synthesized samples, set 3 (AID 504684). The conditions noted are these: […]. In kind it is functional.
A further assay concerns CHO. Description: CHO cell viability loss, potency – luminescence, cytotoxicity control for TLR9-MyD88 binding inhibitor project, dose response (AID 588339).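 Note: CHO cells stably coexpressing TLR9 and MyD88 fusions from primary screen; compound exposure lasted 48 hours before viability readout.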 To be noted: Cricetulus griseus. It is filed as functional, cell-based, hamster.
For a further assay, the target named is T4, Caspase-3 (Homo sapiens, UniProt P42574).
T4 sequence (P42574 whole entry): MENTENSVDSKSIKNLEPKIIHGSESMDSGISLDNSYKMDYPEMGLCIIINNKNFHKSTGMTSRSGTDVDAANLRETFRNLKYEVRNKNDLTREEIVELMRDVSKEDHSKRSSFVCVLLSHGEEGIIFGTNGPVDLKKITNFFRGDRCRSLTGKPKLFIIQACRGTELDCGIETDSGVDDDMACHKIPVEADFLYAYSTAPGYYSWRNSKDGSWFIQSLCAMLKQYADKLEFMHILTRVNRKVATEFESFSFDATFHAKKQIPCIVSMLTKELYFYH
Description: activators of human procaspase-3 D3A mutant – biochemical, absorbance, PC-3 D3A mutant, counter-screen for dual procaspase-3/7 activator project, dose response (AID 504328).

A further assay addresses Beta Lactamase (Pseudomonas aeruginosa, UniProt Q932Y6). Description: BLA reporter interference, concentration series – BLA reporter cells, FRET fluorescence, artefact control for TLR9-MyD88 binding inhibitor project, dose response (AID 588341).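 Note: cell based assay in CHO-K1 cells stably expressing beta-lactamase.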 It is filed as cell-based.
The target in the next assay is T5, Caspase-7 (Homo sapiens, UniProt P55210).
T5 sequence (P55210 whole entry): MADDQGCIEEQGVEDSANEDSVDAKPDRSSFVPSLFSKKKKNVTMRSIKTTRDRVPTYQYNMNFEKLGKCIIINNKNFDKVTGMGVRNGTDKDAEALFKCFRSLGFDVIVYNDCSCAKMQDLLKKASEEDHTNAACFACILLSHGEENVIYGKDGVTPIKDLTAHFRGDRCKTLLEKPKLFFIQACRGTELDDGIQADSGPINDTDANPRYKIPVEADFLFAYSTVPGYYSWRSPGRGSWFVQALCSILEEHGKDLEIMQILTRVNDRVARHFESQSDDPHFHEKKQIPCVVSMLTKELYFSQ
Description: potency of procaspase-7 enzyme activation – biochemical, absorbance, human, dual procaspase-3/-7 activator project, dose response (AID 504330).

T3 sequence (O43614 whole entry): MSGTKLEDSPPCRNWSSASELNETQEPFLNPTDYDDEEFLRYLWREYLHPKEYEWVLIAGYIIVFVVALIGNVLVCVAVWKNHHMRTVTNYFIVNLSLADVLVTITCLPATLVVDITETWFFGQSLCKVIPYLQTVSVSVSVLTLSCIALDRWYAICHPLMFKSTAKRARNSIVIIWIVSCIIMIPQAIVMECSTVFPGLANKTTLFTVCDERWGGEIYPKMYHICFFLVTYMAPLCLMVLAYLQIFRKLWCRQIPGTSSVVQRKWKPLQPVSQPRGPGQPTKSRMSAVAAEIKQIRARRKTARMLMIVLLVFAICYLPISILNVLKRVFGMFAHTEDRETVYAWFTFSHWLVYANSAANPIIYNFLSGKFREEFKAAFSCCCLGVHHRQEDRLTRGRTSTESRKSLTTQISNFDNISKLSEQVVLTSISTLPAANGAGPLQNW
Chain of Beta Lactamase (Q932Y6 whole entry): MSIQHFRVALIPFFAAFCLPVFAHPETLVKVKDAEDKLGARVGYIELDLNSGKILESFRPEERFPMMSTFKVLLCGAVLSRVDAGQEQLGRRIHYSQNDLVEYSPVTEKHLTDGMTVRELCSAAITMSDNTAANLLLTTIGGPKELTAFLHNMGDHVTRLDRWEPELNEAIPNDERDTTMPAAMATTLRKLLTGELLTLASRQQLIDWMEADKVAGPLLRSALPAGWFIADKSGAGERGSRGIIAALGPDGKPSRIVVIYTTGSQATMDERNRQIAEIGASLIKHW

Take `COc1ccc(-c2cc3ncccc3cn2)cc1`: the half-maximal activity concentration (AC50) – broadly, the concentration giving half of the maximal activity seen – in the assay on HeLa was 72.9 µM (active); in assay [1], 7.13 µM (active).
Take `CSc1cccc(NC(=O)C2CCCN2S(=O)(=O)c2ccc(Br)s2)c1` (centres undefined): the IC50 – broadly, the midpoint of a concentration-inhibition curve – in [2] is 0.0933 µM (active); with CHO-K1, > 66.2 µM (inactive); at Orexin receptor type 2 [3], 0.34 µM (active); in assay [4], 0.8 µM (active); in assay [5] it was 27.8 µM (inactive); on Orexin receptor type 2 [6], 0.4 µM (active).
Regarding `CCOc1ccc(-c2nc(CSCC(=O)NCC3CCCO3)c(C)o2)cc1` (centres undefined), the IC50 in the assay with HEK293 [7] was > 80 µM (inactive); in the assay with HEK293 [8], 67.7 µM (inactive); in the assay with Jurkat, > 80 µM (inactive).
`Cc1ccc2c(c1)/C(=C1\C(=O)Nc3ccccc31)C(=O)N2C`: the CC50 in [9] is 13.4 µM (active); in assay [10] it was 16.3 µM (active); in [11], 12.9 µM (active); in [12], 4.76 µM (active); in assay [15], 27 µM (active); in [16], 4.55 µM (active). The concentration for half-maximal inhibition (IC50) in the assay “cells” was 1.89 µM (active). Besides, the concentration at half-maximal activity (AC50) in assay [13] is 12.1 µM (active); in [14] it was 8.85 µM (active).
Turning to `COc1ccccc1N1C(=O)C2C(C(=O)c3ccccc3)=NN(c3ccccc3)C2C1=O` (centres undefined), the IC50 with CHO is > 49.8 µM (inactive); at Beta Lactamase, 9.37 µM (active). Further, the EC50 at Caspase-3 and on Caspase-7 was > 85.3 µM (inactive) each time.
